According to patent publication EP0335745A1, “Process for producing pyrid-4-ones” (THE ROYAL FREE HOSPITAL SCHOOL OF MEDICINE, priority 1988, dated 1989):
Like-named read-outs stand apart in the source and are kept apart here.

What was measured:
[1] = test system: iron loaded ⁵⁹Fe transferrin labelled mice; assay: Iron mobilisation (59Fe excretion) from iron loaded 59Fe transferrin labelled mice; format: in vivo; details: dose 10mg; for %⁵⁹Fe excretion X ± SE: mice 31-35g, mean of 3 days before chelator administration = 100%
Source text: Iron mobilisation from iron loaded ⁵⁹Fe transferrin labelled mice by the 1-alkyl-2-ethyl-3-hydroxypyrid-4-ones was studied as previously described.

[2] = pKa determination of the chelators; format: physicochemical
[3] = n-octanol/water (PBS) partition coefficient (K par) of the chelators and their iron complexes; format: physicochemical; details: for Kpar Chelator / Kpar iron Complex: n-octanol/phosphate buffer saline (PH 7.3), Table 7; for Kpar Chelator / K par Chelator: free chelator; for K par Chelator / K par Iron Complex: n-octanol/water (PBS), Table 4; for K par Iron Complex: iron complex of the chelator
Description: The n-octanol/water (PBS) partition coefficients (K par) of the chelators and their iron complexes were determined using a previously determined method.
(§1) The partition coefficients of the chelators and their iron complexes were determined using a mixture of n-octanol and phosphate buffer saline at pH 7.3 as previously described. The effect of the chelators on the incorporation of iron containing traces of ⁵⁹Fe into red blood cells was studied as previously described by incubating the chelator iron complexes with packed red blood cells at 37°C, withdrawing aliquots, centrifuging and measuring the incorporation of ⁵⁹Fe into the red blood cells.

human transferrin = molecular target: T1, human transferrin (Homo sapiens, UniProt P02787); assay: Iron mobilisation from 59Fe transferrin by dialysis against chelator solution; format: biochemical; details: chelator 4x10⁻³M, 37°C, pH 7.3, 2 x PBS
T1 construct: purchased Sigma
Description: Human apotransferrin (Sigma) was radioactively labelled with ⁵⁹Fe and saturated with iron as previously described. Samples (1.5ml) of the ⁵⁹Fe transferrin (0.54mg protein, 0.75 µg iron, 0.07 µCi ⁵⁹Fe) were enclosed in a dialysis bag and dialysed against a chelator solution (10ml, 4mM) by continuous stirring at 37°C. Samples (1ml) of the dialysate were removed at different time intervals, the ⁵⁹Fe activity measured and then returned back into the incubation mixture. Ferritin solution and haemosiderin solid were isloated from a spleen of a thalassemia patient and samples containing the same amount of iron (0.25mg, 1.5ml) were dialysed at 37°C against a chelator solution (4mM, 10ml) over a 12 day period. The amount of iron immobilised was estimated spectrophotometrically by measuring the visible absorbance of the dialysate and by using the extinction coefficient of the chelator iron complex (Fig 3, Table 6). All the protein incubations with the chelators were carried out in the 2xPBS pH 7.3.
Haemosiderin (0.25mg iron, 16.5% w/w iron, […]) ferritin (0.25mg iron, 10.7% w/w iron, 1.5ml) and transferrin (0.75ug iron, 0.54mg protein, 0.07 uCi ⁵⁹Fe, 1.5ml) in dialysis bags were dialysed against the chelators (4x10⁻³M, 10ml) at 37°C, pH 7.3 in 2 x PBS by continuous stirring. Iron mobilisation was estimated from samples of the dialysates taken at different time intervals as explained in the Materials and Methods section.

male Sprague Dawley rats = assay: Lethal dose range in rats, intraperitoneal administration; format: in vivo
Description: The three 1-alkyl-3-hydroxy-2-methylpyrid-4-ones dissolved in phosphate buffer saline were administered intraperitoneally to groups of three male Sprague Dawley rats (60-90g) at different doses until a near maximum non-lethal dose was established.

red blood cells = assay: Red blood cell permeability: incorporation of 59Fe into red blood cells in the presence of the chelators; format: cell-based; details: iron 2.5 x 10⁻⁵M, chelators 18 x 10⁻⁵M, packed red blood cells, 37°C
Description: as §1

loaded mice and rabbits = details: doses of up to 200 mg/kg, also non iron loaded mice; cited from earlier work
haemosiderin = assay: Iron mobilisation from haemosiderin by dialysis against chelator solution; format: biochemical, human; details: chelator 4x10⁻³M, 37°C, pH 7.3, 2 x PBS, * = duplicate samples
Description: • Fig 1: pH titration of the chelator iron complexes. Chelators (2mM in 0.1M NaCl, 25ml) and freshly prepared iron (III) chloride (0.5mM in 0.1M NaCl, 25ml) were mixed and titrated with HCl (10M) and NaOH (5M). The absorbance of the chelator iron mixture at 460nm was measured after each pH change. 1-Methyl- (Δ), 1-ethyl- (□) and 1-propyl- (◇) -2-ethyl-3-hydroxypyrid-4-ones. • Fig 2: • A. Job plots of the 1-alkyl-2-ethyl-3-hydroxypyrid-4-ones with iron at pH 7.3. Chelators (2mM in […] 0-5ml) and iron (2mM in 0.1M NaCl, 0-5ml) were mixed at different molar ratios to a final volume of 5ml. 4 x PBS (5ml), pH 7.3 was then added and the absorbance at 460nm measured. […] Theoretical Job plots for 1:1, 2:1, 3:1 chelator:iron complexes were obtained using the maximum absorbance values from the Job plots in A. 1:1 (◇) 2:1 (□), 3:1 (Δ). • Fig. 3: Iron mobilisation from human ferritin and haemosiderin using 1-alkyl-2-ethyl-3-hydroxypyrid-4-ones. […] The progress of the reaction was followed by measuring the absorbance at 460nm of the dialysate at different time intervals.
Human apotransferrin (Sigma) was radioactively labelled with ⁵⁹Fe and saturated with iron as previously described. […] Samples (1ml) of the dialysate were removed at different time intervals, the ⁵⁹Fe activity measured and then returned back into the incubation mixture. […]

[4] = pKa of the hydroxyl group, read-out: Pka(2)
[5] = male, Sprague Dawley, rat, in vivo, ip

T1 sequence (P02787 20-698): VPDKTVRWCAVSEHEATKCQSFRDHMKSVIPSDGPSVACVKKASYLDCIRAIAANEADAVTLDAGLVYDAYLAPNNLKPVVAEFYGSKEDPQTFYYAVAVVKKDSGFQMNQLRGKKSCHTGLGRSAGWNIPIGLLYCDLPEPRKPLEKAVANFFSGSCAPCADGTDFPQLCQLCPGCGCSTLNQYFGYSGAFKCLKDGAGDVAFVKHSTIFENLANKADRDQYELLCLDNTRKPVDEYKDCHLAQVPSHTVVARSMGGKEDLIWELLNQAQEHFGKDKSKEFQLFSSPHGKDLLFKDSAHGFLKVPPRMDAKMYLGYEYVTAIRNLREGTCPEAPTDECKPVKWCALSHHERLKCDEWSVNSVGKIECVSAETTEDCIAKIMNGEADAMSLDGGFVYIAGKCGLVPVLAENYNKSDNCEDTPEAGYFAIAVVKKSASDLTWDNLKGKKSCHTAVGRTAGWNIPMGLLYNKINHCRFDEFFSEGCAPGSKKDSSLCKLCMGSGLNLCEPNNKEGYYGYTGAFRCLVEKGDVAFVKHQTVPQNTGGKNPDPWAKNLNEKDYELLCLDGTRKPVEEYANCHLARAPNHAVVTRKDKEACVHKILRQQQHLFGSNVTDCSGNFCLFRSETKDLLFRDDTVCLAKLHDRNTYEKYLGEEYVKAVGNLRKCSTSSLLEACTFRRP

SMILES: CC(=O)N(O)CCCCCNC(=O)CCC(=O)N(O)CCCCCNC(=O)CCC(=O)N(O)CCCCCN [Desferrioxamine, reference compound]
- %⁵⁹Fe excretion X ± SE ([1]; ip): 381 ± 49%

SMILES: Cc1c(O)c(=O)ccn1C [Example 1, 1,2-Dimethyl-3-hydroxypyrid-4-one]
- pKa [2, 4]: 9.7
- pKa ([2]; read-out: PKa(1)): 3.3
- Kpar Chelator [3]: 0.19
- Kpar iron Complex [3]: 0.24
- K par Chelator [3]: 0.19
- K par Iron Complex [3]: 0.24
- Percentage Iron Removal Transferrin ⁵⁹Fe 1h (human transferrin): 37.3
- Percentage Iron Removal Transferrin ⁵⁹Fe 2h (human transferrin): 69.9
- Percentage Iron Removal Transferrin ⁵⁹Fe 8h (human transferrin): 99.5
- Lethal Dose (range) (male Sprague Dawley rats; [5]): 600 to 700 mg/kg
- ⁵⁹Fe incorporation (%) 20 min (red blood cells): 5.0%
- ⁵⁹Fe incorporation (%) 1h (red blood cells): 5.0%
- increasing iron excretion (loaded mice and rabbits): effective

SMILES: CCn1ccc(=O)c(O)c1C [Example 2, 1-Ethyl-3-hydroxy-2-methylpyrid-4-one]
- pKa [2, 4]: 10.3
- pKa ([2]; read-out: PKa(1)): 3.6
- Kpar Chelator [3]: 0.47
- Kpar iron Complex [3]: 0.52
- K par Chelator [3]: 0.37
- K par Iron Complex [3]: 0.52
- Lethal Dose (range) (male Sprague Dawley rats; rats, intraperitoneally, range of doses, the higher being lethal and the lower a non-lethal dose): 400 to 500 mg/kg
- ⁵⁹Fe incorporation (%) 20 min (red blood cells): 5.0%
- ⁵⁹Fe incorporation (%) 1h (red blood cells): 10%
- increasing iron excretion (loaded mice and rabbits): effective

SMILES: CCCn1ccc(=O)c(O)c1C [Example 3, 3-Hydroxy-2-methyl-1-propylpyrid-4-one]
- pKa [2, 4]: 10.2
- pKa ([2]; read-out: PKa(1)): 3.7
- Lethal Dose (range) (male Sprague Dawley rats; [5]): 150 to 200 mg/kg
- ⁵⁹Fe incorporation (%) 20 min (red blood cells): 85%
- ⁵⁹Fe incorporation (%) 1h (red blood cells): 86%

SMILES: CCc1c(O)c(=O)ccn1C [Example 4, 2-Ethyl-3-hydroxy-1-methylpyrid-4-one]
- pKa [2, 4]: 9.8
- pKa ([2]; read-out: PKa(1)): 3.7
- K par Chelator [3]: 0.4
- K par Iron Complex [3]: 0.02
- Percentage Iron Removal Transferrin ⁵⁹Fe 1h (human transferrin): 36.0
- Percentage Iron Removal Transferrin ⁵⁹Fe 2h (human transferrin): 56.6
- Percentage Iron Removal Transferrin ⁵⁹Fe 8h (human transferrin): 100.0
- %⁵⁹Fe excretion X ± SE ([1]; ig): 362 ± 53%
- %⁵⁹Fe excretion X ± SE ([1]; ip): 415 ± 42%

SMILES: CCc1c(O)c(=O)ccn1CC [Example 5, 1,2-diethyl-3-hydroxypyrid-4-one]
- pKa [2, 4]: 10.1
- pKa ([2]; read-out: PKa(1)): 3.7
- K par Chelator [3]: 1.4
- K par Iron Complex [3]: 0.28
- Percentage Iron Removal Transferrin ⁵⁹Fe 1h (human transferrin): 24.9
- Percentage Iron Removal Transferrin ⁵⁹Fe 2h (human transferrin): 51.8
- Percentage Iron Removal Transferrin ⁵⁹Fe 8h (human transferrin): 96.6
- %⁵⁹Fe excretion X ± SE ([1]; ig): 309 ± 22%
- %⁵⁹Fe excretion X ± SE ([1]; ip): 371 ± 46%

SMILES: CCCn1ccc(=O)c(O)c1CC [Example 6, 2-ethyl-3-hydroxy-1-propylpyrid-4-one]
- pKa [2, 4]: 10.1
- pKa ([2]; read-out: PKa(1)): 3.4
- K par Chelator [3]: 4.2
- K par Iron Complex [3]: 9.68
- Percentage Iron Removal Transferrin ⁵⁹Fe 1h (human transferrin): 23.2
- Percentage Iron Removal Transferrin ⁵⁹Fe 2h (human transferrin): 50.3
- Percentage Iron Removal Transferrin ⁵⁹Fe 8h (human transferrin): 97.6
- Percentage Iron Removal Haemosiderin 24h (haemosiderin; 24h): 27.8
- Percentage Iron Removal Haemosiderin 12d (haemosiderin; 12d): 74.5
- %⁵⁹Fe excretion X ± SE ([1]; ig): 163 ± 25%
- %⁵⁹Fe excretion X ± SE ([1]; ip): 334 ± 64%
- death of mice before the completion of the treatment ([1]; mice, ip or ig, 11 administrations): caused death to two mice
